Like-named read-outs stand apart in the source and are kept apart here.
Tests used:
[1] = test system: SMMC-7721 cells; experiment: MTT assay, proliferation of SMMC-7721 cells; assay type: cell-based, human
Method: (§1) The in vitro antitumor activities of the synthesized compounds 7a-l and 8a-l against five human cancer cells were evaluated in MTT assays using 5-fluorouracil (5-FU) and harmine as positive controls. These cells are human hepatocellular carcinoma cells (SMMC-7721 and Hep G2), human colon cancer cell lines (HCT116), human bladder carcinoma cells (EJ), and human lung cancer cells (H460).
(§2) Hepatocellular carcinoma cells (SMMC-7721 and Hep G2), Human colon cancer cell lines (HCT116), human bladder carcinoma cells (EJ) or human lung cancer cells (H460) at 10^4 cells per well were cultured in 10% FBS DMEM in 96-well flat-bottom microplates overnight. The cells were incubated in triplicate with, or without, different concentrations of each test compound for 48 h. During the last 4 h incubation, 30 μL of tetrazolium dye (MTT) solution (5 mg mL^−1) was added to each well. The resulting MTT-formazan crystals were dissolved in 150 μL DMSO, and absorbance was measured spectrophotometrically at 570 nm using an ELISA plate reader. The inhibition induced by each test compound at the indicated concentrations was expressed as a percentage. The concentration required for 50% inhibition (IC50) was calculated using the software (GraphPadPrism Version 4.03).

[2] = test system: Hep G2 cells; experiment: MTT assay, proliferation of Hep G2 cells; assay type: cell-based; conditions: Homo sapiens, HepG2, 48 h, read-out: In vitro cytotoxicity (IC50) Hep G2
Method: as §1, §2

[3] = test system: HCT116 cells; experiment: MTT assay, proliferation of HCT116 cells; assay type: cell-based; conditions: Homo sapiens, HCT-116, 48 h, read-out: In vitro cytotoxicity (IC50) HCT116
Method: as §1, §2

[4] = test system: EJ cells; experiment: MTT assay, proliferation of EJ cells; assay type: cell-based; conditions: 48 h, EJ human bladder carcinoma cells, read-out: In vitro cytotoxicity (IC50) EJ
Method: as §1, §2

[5] = test system: H460 cells; experiment: MTT assay, proliferation of H460 cells; assay type: cell-based; conditions: NCI-H460, 48 h, H460 human lung cancer cells, read-out: In vitro cytotoxicity (IC50) H460
Method: as §1, §2

[6] = test system: human cancer cells (SMMC-7721, Hep G2, HCT116, EJ, H460); experiment: MTT assay, summary statements across several human cancer cell lines; assay type: cell-based; conditions: Homo sapiens; cancer cell lines tested (SMMC-7721, Hep G2, HCT116); MTT; read-out: Antitumor activities (IC50) of capped analogs
Method: as §1, §2

[7] = Homo sapiens, SMMC-7721, 48 h, read-out: In vitro cytotoxicity (IC50) SMMC-7721, MTT assay, 48 h, SMMC-7721 human hepatocellular carcinoma cells

Work on `Cc1ccccc1C(=O)NCCCNC(=O)c1cc2c(cn1)[nH]c1ccccc12` [7a, N-(3-(2-Methylbenzamido)propyl)-9H-pyrido[3,4-b]indole-3-carboxamide] yielded an IC50 [1, 7] of 34.7 µM, an IC50 [2] of 32 µM and an IC50 [3] of 36 µM. It also gave an IC50 [4] of 25.3 µM and an IC50 [5] of 31.1 µM.
With `Cc1ccccc1C(=O)NCCCNC(=O)c1cc2c([nH]c3ccccc32)c(C)n1` [7b, 1-Methyl-N-(3-(2-methylbenzamido)propyl)-9H-pyrido[3,4-b]indole-3-carboxamide] the IC50 [1, 7] was 27.3 µM, the IC50 [2] was 23.7 µM and the IC50 [3] was 28.9 µM. The IC50 [4] was 23.2 µM and the IC50 [5] was 30.5 µM.
For `COc1ccc(-c2nc(C(=O)NCCCNC(=O)c3ccccc3C)cc3c2[nH]c2ccccc23)cc1` [7c, 1-(4-Methoxyphenyl)-N-(3-(2-methylbenzamido)propyl)-9H-pyrido[3,4-b]indole-3-carboxamide], the IC50 [1, 7] was greater than 50 µM, the IC50 [2] was greater than 50 µM and the IC50 [3] was greater than 50 µM. For the same compound, the IC50 [4] was greater than 50 µM and the IC50 [5] was greater than 50 µM.
Compound `Cc1ccccc1C(=O)NCCCCNC(=O)c1cc2c(cn1)[nH]c1ccccc12` [7d, N-(4-(2-Methylbenzamido)butyl)-9H-pyrido[3,4-b]indole-3-carboxamide] has an IC50 [1, 7] of 24.3 µM, an IC50 [2] of 19.1 µM and an IC50 [3] of 21.4 µM. It also gave an IC50 [4] of 18.4 µM and an IC50 [5] of 23.2 µM.
With `Cc1ccccc1C(=O)NCCCCNC(=O)c1cc2c([nH]c3ccccc32)c(C)n1` [7e, 1-Methyl-N-(4-(2-methylbenzamido)butyl)-9H-pyrido[3,4-b]indole-3-carboxamide] the IC50 [1, 7] was 17.8 µM, the IC50 [2] was 15.2 µM and the IC50 [3] was 14.8 µM. For the same compound, the IC50 [4] was 13.3 µM and the IC50 [5] was 20.1 µM.
In the case of `COc1ccc(-c2nc(C(=O)NCCCCNC(=O)c3ccccc3C)cc3c2[nH]c2ccccc23)cc1` [7f, 1-(4-Methoxyphenyl)-N-(4-(2-methylbenzamido)butyl)-9H-pyrido[3,4-b]indole-3-carboxamide], the IC50 [1, 7] is reported as 25.6 µM, the IC50 [2] is reported as 31.2 µM and the IC50 [3] is reported as 32.6 µM. For the same compound, the IC50 [4] was 29.4 µM and the IC50 [5] was 38.4 µM.
`Cc1ccccc1C(=O)NCCCCCNC(=O)c1cc2c(cn1)[nH]c1ccccc12` [7g, N-(5-(2-Methylbenzamido)pentyl)-9H-pyrido[3,4-b]indole-3-carboxamide] showed an IC50 [1, 7] of 15.9 µM, an IC50 [2] of 14.3 µM and an IC50 [3] of 17.1 µM. It also gave an IC50 [4] of 15.3 µM and an IC50 [5] of 19.4 µM.
Compound `Cc1ccccc1C(=O)NCCCCCNC(=O)c1cc2c([nH]c3ccccc32)c(C)n1` [7h, 1-Methyl-N-(5-(2-methylbenzamido)pentyl)-9H-pyrido[3,4-b]indole-3-carboxamide] has an IC50 [1, 7] of 12.8 µM, an IC50 [2] of 11.3 µM and an IC50 [3] of 15.8 µM. The IC50 [4] was 12.1 µM and the IC50 [5] was 13.2 µM.
`COc1ccc(-c2nc(C(=O)NCCCCCNC(=O)c3ccccc3C)cc3c2[nH]c2ccccc23)cc1` [7i, 1-(4-Methoxyphenyl)-N-(5-(2-methylbenzamido)pentyl)-9H-pyrido[3,4-b]indole-3-carboxamide] showed an IC50 [1, 7] of 38.2 µM, an IC50 [2] greater than 50 µM and an IC50 [3] of 45.2 µM. The IC50 [4] was greater than 50 µM and the IC50 [5] was 27.5 µM.
Work on `Cc1ccccc1C(=O)NCCCCCCNC(=O)c1cc2c(cn1)[nH]c1ccccc12` [7j, N-(6-(2-Methylbenzamido)hexyl)-9H-pyrido[3,4-b]indole-3-carboxamide] yielded an IC50 [1, 7] of 23.3 µM, an IC50 [2] of 28 µM and an IC50 [3] of 26.6 µM. It also gave an IC50 [4] of 18.2 µM and an IC50 [5] of 15.3 µM.
`Cc1ccccc1C(=O)NCCCCCCNC(=O)c1cc2c([nH]c3ccccc32)c(C)n1` [7k, 1-Methyl-N-(6-(2-methylbenzamido)hexyl)-9H-pyrido[3,4-b]indole-3-carboxamide] was tested, and the IC50 [1, 7] was 11.3 µM, the IC50 [2] was 16.9 µM and the IC50 [3] was 15.3 µM. For the same compound, the IC50 [4] was 13.7 µM and the IC50 [5] was 14.3 µM.
`COc1ccc(-c2nc(C(=O)NCCCCCCNC(=O)c3ccccc3C)cc3c2[nH]c2ccccc23)cc1` [7l, 1-(4-Methoxyphenyl)-N-(6-(2-methylbenzamido)hexyl)-9H-pyrido[3,4-b]indole-3-carboxamide] was tested, and the IC50 [1, 7] was greater than 50 µM, the IC50 [3] was greater than 50 µM and the IC50 [5] was greater than 50 µM.
With `O=C(NCCCNC(=O)c1ccccc1O)c1cc2c(cn1)[nH]c1ccccc12` [8a, N-(3-(2-Hydroxybenzamido)propyl)-9H-pyrido[3,4-b]indole-3-carboxamide] the IC50 [1, 7] was 22.6 µM, the IC50 [2] was 18.9 µM and the IC50 [3] was 20.1 µM. It also gave an IC50 [4] of 15.9 µM and an IC50 [5] of 25.5 µM.
`Cc1nc(C(=O)NCCCNC(=O)c2ccccc2O)cc2c1[nH]c1ccccc12` [8b, N-(3-(2-Hydroxybenzamido)propyl)−1-methyl-9H-pyrido[3,4-b]indole-3-carboxamide] showed an IC50 [1, 7] of 19.1 µM, an IC50 [3] of 13.6 µM and an IC50 [4] of 15.3 µM. For the same compound, the IC50 [5] was 22.2 µM.
`COc1ccc(-c2nc(C(=O)NCCCNC(=O)c3ccccc3O)cc3c2[nH]c2ccccc23)cc1` [8c, N-(3-(2-Hydroxybenzamido)propyl)-1-(4-methoxyphenyl)-9H-pyrido[3,4-b]indole-3-carboxamide] showed an IC50 [1, 7] of 36 µM, an IC50 [2] of 45.8 µM and an IC50 [3] of 33.2 µM. The IC50 [4] was 38.6 µM and the IC50 [5] was greater than 50 µM.
With `O=C(NCCCCNC(=O)c1ccccc1O)c1cc2c(cn1)[nH]c1ccccc12` [8d, N-(4-(2-Hydroxybenzamido)butyl)-9H-pyrido[3,4-b]indole-3-carboxamide] the IC50 [1, 7] was 13 µM, the IC50 [2] was 11.7 µM and the IC50 [3] was 15.9 µM. The IC50 [4] was 12.1 µM and the IC50 [5] was 15.2 µM.
For `Cc1nc(C(=O)NCCCCNC(=O)c2ccccc2O)cc2c1[nH]c1ccccc12` [8e, N-(4-(2-Hydroxybenzamido)butyl)−1-methyl-9H-pyrido[3,4-b]indole-3-carboxamide], the IC50 [1, 7] was 7.93 µM, the IC50 [2] was 9.26 µM and the IC50 [3] was 9.36 µM. For the same compound, the IC50 [4] was 9.01 µM and the IC50 [5] was 11.9 µM.
`COc1ccc(-c2nc(C(=O)NCCCCNC(=O)c3ccccc3O)cc3c2[nH]c2ccccc23)cc1` [8f, N-(4-(2-Hydroxybenzamido)butyl)-1-(4-methoxyphenyl)-9H-pyrido[3,4-b]indole-3-carboxamide] gave an IC50 [1, 7] of 20.1 µM, an IC50 [2] of 17.7 µM and an IC50 [3] of 18.2 µM. For the same compound, the IC50 [4] was 15 µM and the IC50 [5] was 22.8 µM.
With `O=C(NCCCCCNC(=O)c1ccccc1O)c1cc2c(cn1)[nH]c1ccccc12` [8g, N-(5-(2-Hydroxybenzamido)pentyl)-9H-pyrido[3,4-b]indole-3-carboxamide] the IC50 [1, 7] was 10.7 µM, the IC50 [2] was 9.12 µM and the IC50 [3] was 9.18 µM. It also gave an IC50 [4] of 8.71 µM and an IC50 [5] of 12.5 µM.
Compound `COc1ccc(-c2nc(C(=O)NCCCCCNC(=O)c3ccccc3O)cc3c2[nH]c2ccccc23)cc1` [8i, N-(5-(2-Hydroxybenzamido)pentyl)-1-(4-methoxyphenyl)-9H-pyrido[3,4-b]indole-3-carboxamide] has an IC50 [1, 7] of 46.8 µM, an IC50 [2] of 30.8 µM and an IC50 [3] greater than 50 µM. For the same compound, the IC50 [4] was greater than 50 µM and the IC50 [5] was 38.5 µM.
Compound `O=C(NCCCCCCNC(=O)c1ccccc1O)c1cc2c(cn1)[nH]c1ccccc12` [8j, N-(6-(2-Hydroxybenzamido)hexyl)-9H-pyrido[3,4-b]indole-3-carboxamide] has an IC50 [1, 7] of 13.4 µM, an IC50 [2] of 17.2 µM and an IC50 [3] of 18.6 µM. The IC50 [4] was 16.5 µM and the IC50 [5] was 21.5 µM.
For `Cc1nc(C(=O)NCCCCCCNC(=O)c2ccccc2O)cc2c1[nH]c1ccccc12` [8k, N-(6-(2-Hydroxybenzamido)hexyl)-1-methyl-9H-pyrido[3,4-b]indole-3-carboxamide], the IC50 [1, 7] was 10.1 µM, the IC50 [2] was 13.6 µM and the IC50 [3] was 10.7 µM. The IC50 [4] was 13.2 µM and the IC50 [5] was 11.4 µM.
`COc1ccc(-c2nc(C(=O)NCCCCCCNC(=O)c3ccccc3O)cc3c2[nH]c2ccccc23)cc1` [8l, N-(6-(2-Hydroxybenzamido)hexyl)-1-(4-methoxyphenyl)-9H-pyrido[3,4-b]indole-3-carboxamide] was tested, and the IC50 [1, 7] was greater than 50 µM, the IC50 [2] was 42 µM and the IC50 [3] was greater than 50 µM. It also gave an IC50 [5] greater than 50 µM.
In the case of `CC(=O)NCCCCCNC(=O)c1cc2c([nH]c3ccccc32)c(C)n1` [10a, N-(5-acetamidopentyl)-1-methyl-9H-pyrido[3,4-b]indole-3-carboxamide], the IC50 [1, 7] is reported as 58.6 ± 6.7 µM, the IC50 ([1]; human, 48 h) is reported as greater than 50 µM and the IC50 [2] is reported as greater than 50 µM. The IC50 [3] was greater than 50 µM and the IC50 [6] was greater than 50 µM.
Compound `Cc1nc(C(=O)NCCCCCNC(=O)c2ccccc2)cc2c1[nH]c1ccccc12` [10b, N-(5-benzamidopentyl)-1-methyl-9H-pyrido[3,4-b]indole-3-carboxamide] has an IC50 [1, 7] greater than 100 µM, an IC50 ([1]; human, 48 h) greater than 50 µM and an IC50 [2] greater than 50 µM. For the same compound, the IC50 [3] was greater than 50 µM and the IC50 [6] was greater than 50 µM.
In the case of `O=C(O)c1ccccc1O` [SA, salicylic acid], the inhibition at 25 µM ([1]; Homo sapiens, SMMC-7721, 25 μM, 48 h, MTT assay, read-out: Inhibition of SMMC-7721 cell proliferation) is reported as roughly 15%.
`COc1ccc2c(c1)[nH]c1c(C)nccc12` [harmine, reference compound] gave an IC50 ([1]; Homo sapiens, SMMC-7721, 48 h, read-out: In vitro cytotoxicity (IC50) SMMC-7721) of 49.1 µM, an IC50 [2] of 55.3 µM and an IC50 [3] of 46.7 µM.

— PMC5099944, “Design, synthesis and biological evaluation of hybrids of β-carboline and salicylic acid as potential anticancer and apoptosis inducing agents” (Scientific Reports, 2016)
